In patent US20100184820A1, “COMBINATIONS COMPRISING STAUROSPORINES” (priority 2006, published 2010):
Where two headings read alike, the source gives them in different places.

Legend:
Format in all cases: cell-based, human
HMC-1.2 cells [1] = experiment: induction of apoptosis (percentage of apoptotic cells on Wright-Giemsa-stained cytospin slides); conditions: for EC50: Homo sapiens, incubated with drugs for 24 hours
Procedure: (§1) Scramble control represents a mixture of A (adenine), G (guanine), T (thymine), and C (cytosine) bases, the resulting preparation containing an equimolar mixture of oligonucleotides. […] For transfection, 800,000 cells are seeded in 75 cm^2 culture plates at 37° C. for 24 hours. Mcl-1-ASO and Mcl-1 siRNA are complexed with Lipofectin-Reagent (Invitrogen) in RPMI 1640 medium essentially as described. […] After exposure to ASO, cells are washed and cultured in RPMI 1640 medium with 10% FCS in the presence or absence of various concentrations of TK inhibitors for another 12 hours before being analyzed. siRNA-treated cells are kept in control medium for 12 hours (without TK inhibitors) before being examined for the percentage of apoptotic cells and Western blotting.
(§2) Thereafter, 1 μCi ^3H-thymidine is added to each well. Sixteen hours later, cells are harvested on filter membranes (Packard Bioscience, Meriden, Conn.) in a Filtermate 196 harvester (Packard Bioscience). Filters are then air-dried, and the bound radioactivity is measured in a β-counter (Top-Count NXT, Packard Bioscience). All experiments are performed in triplicates. Cell viability is determined by the trypan blue exclusion test. The percentage of apoptotic cells is determined on Wright-Giemsa-stained cytospin slides employing conventional cytomorphologic criteria.
(§3) METHOD: Effects of mcl-1 antisense oligonucleotides on Mcl-1 protein expression and cell viability in HMC-1.1 and HMC-1.2 cells are analyzed. […] Western Blot analysis of Mcl-1 expression is performed using an anti-Mcl-1 antibody. β-Actin served as loading control. Evaluation of non-viable (trypan blue-positive) cells is expressed as percentage of all nucleated cells. Numbers (%) of apoptotic cells. Results represent the mean±S.D. from 3 independent experiments.
(§4) METHOD: [001] Effects of mcl-1-siRNA are analyzed in neoplastic mast cells on expression of Mcl-1 protein and cell viability in HMC-1.1 cells and HMC-1.2 cells. Cells are left untransfected (Control) or are transfected with either an mcl-1-specific siRNA (mcl-1-siRNA; 200 nM) or a luciferase-specific (control)-siRNA (luc-siRNA; 200 nM) as described herein. Mcl-1 protein expression is determined by Western blotting using a polyclonal anti-Mcl -1 antibody. Equal loading is confirmed by probing for β-Actin. Cell viability is analyzed by recording the percentage (%) of apoptotic cells. Results represent the mean±S.D. from 3 independent experiments in each set of experiments.
(§5) Mcl-1 protein expression is determined by Western blotting using a polyclonal anti-Mcl-1 antibody. Equal loading is confirmed by probing for β-Actin. Cell viability is analyzed by recording the percentage (%) of apoptotic cells.

HMC-1.1 cells [2] = experiment: as above; conditions: for EC50: Homo sapiens, incubated with drugs for 24 hours
Procedure: as §1, §2, §3, §4, §5

HMC-1.2 cells [3] = experiment: 3H-thymidine incorporation assay; conditions: for IC50: Homo sapiens, read-out: 3H-thymidine uptake (IC50) HMC-1.2
Procedure: (§6) The human mast cell line HMC-1 generated from leukemic cells in a patient with MCL48 are obtained (Mayo Clinic, Rochester, Minn.). […] HMC-1 cells are re-thawed from an original stock every 4 to 8 weeks and passaged weekly. As control of ‘phenotypic stability’, HMC-1 cells are periodically checked for expression of KIT and the down-modulating effect of IL-4 (100 U/ml, 48 hours).
(§7) In a separate set of experiments, HMC-1 cells are transfected with mcl-1-specific ASO before being exposed to inhibitory drugs (see below). […] After exposure to drugs or/and ASO, cells are subjected to ^3H-thymidine uptake experiments, analysis of cell viability and apoptosis, or Western blotting.
as §2, with “Sixteen hours later, cells are harvested on filter membranes (Packard Bioscience, Meriden, Conn.) in a Filtermate 196 harvester (Packard Bioscience).” left out

HMC-1.1 cells [4] = experiment: 3H-thymidine incorporation assay; conditions: for IC50: Homo sapiens, read-out: 3H-thymidine uptake (IC50) HMC-1.1; for cell growth / proliferation (in words): HMC-1.1
Procedure: as §6, §7
as §2, with “Sixteen hours later, cells are harvested on filter membranes (Packard Bioscience, Meriden, Conn.) in a Filtermate 196 harvester (Packard Bioscience).” left out

Mcl-1 protein [5] = experiment: Western blot analysis of Mcl-1 protein expression in HMC-1.2 cells; conditions: for expression of the Mcl-1 protein after targeted drugs: HMC-1.2 exhibiting KIT D816V, PKC412 1-10 μM, 2CdA 10-100 ng/ml, nilotinib and imatinib over the dose range tested
Procedure: (§8) Western blot analysis is performed as described previously using lysates of HMC-1 cells and a polyclonal rabbit anti-human Mcl-1 antibody (Santa Cruz Biotechnology, Santa Cruz, Calif.). In brief, cells are lysed in phosphate buffered saline (PBS) containing 1% Triton-X-100 (Sigma, St. Louis, Mo.). Proteins are separated under reducing conditions by SDS-polyacrylamide gel electrophoresis and transferred to nitrocellulose membranes (Protran, Schleicher & Schuell, Dassel, Germany) in transfer buffer. Membranes are then exposed to anti-mouse/anti-rabbit IgG (BM Chemiluminescence Western blotting Kit, Roche). […] Chemiluminescence is detected by exposure to a Biomax MS film (Kodak).
as §3, §4, §5

Mcl-1 protein [6] = experiment: Western blot analysis of Mcl-1 protein expression in HMC-1.1 cells; conditions: for expression of the Mcl-1 protein after targeted drugs: HMC-1.1 lacking KIT D816V, PKC412 0.3-10 μM, nilotinib 10-300 nM, imatinib 30-300 nM, 2CdA up to 1,000 ng/ml
Procedure: as §8, §3, §4, §5

HMC-1.1 cells [7] = experiment: combination of mcl-1 ASO and targeted drugs, combination index (CalcuSyn); conditions: drug combined with mcl-1 ASO
Procedure: To determine the level of significance in differences found in the evaluation of data, the paired student t-test is applied.
Results are expressed as percent of control (=scramble control) without targeted drug and represent the mean±SD of 3 independent experiments are analyzed. […] Results represent the mean±SD of 3 independent experiments. […] A combination index (CI) less than 1 indicates synergism.

[8] = 24 hours of incubation with drug

Row | EC50 (HMC-1.2 cells [1]) | EC50 (HMC-1.1 cells [2]) | Molecule | induction of apoptosis (in words) (HMC-1.1 cells [2]; HMC-1.1) | expression of the Mcl-1 protein after targeted drugs (Mcl-1 protein [5]) | expression of the Mcl-1 protein after targeted drugs (Mcl-1 protein [6]) | cell growth / proliferation (in words) (HMC-1.1 cells [4]) | further results
1 | > 1 µg/mL | > 1 µg/mL | Nc1nc(Cl)nc2c1ncn2[C@H]1C[C@H](O)[C@@H](CO)O1 [2CdA, 2-chlorodeoxyadenosine] | no significant effect | – | – | – | IC50 (HMC-1.2 cells [3]; [8]): 0.005 to 0.02 µg/mL; IC50 (HMC-1.1 cells [4]; [8]): 0.1 to 0.3 µg/mL
2 | – | – | Cc1ccc(NC(=O)c2ccc(CN3CCN(C)CC3)cc2)cc1Nc1nccc(-c2cccnc2)n1 [Imatinib] | induce apoptosis | no significant effects | down-regulate expression | – | –
3 | – | – | CO[C@@H]1[C@H](N(C)C(=O)c2ccccc2)C[C@H]2O[C@]1(C)n1c3ccccc3c3c4c(c5c6ccccc6n2c5c31)C(=O)NC4 [PKC412, N-[(9S,10R,11R,13R)-2,3,10,11,12,13-hexahydro-10-methoxy-9-methyl-1-oxo-9,13-epoxy-1H,9H-diindolo[1,2,3-gh:3′,2′,1′-lm]pyrrolo[3,4-j][1,7]benzodiazonin-11-yl]-N-methylbenzamide] | induce apoptosis | decreased the expression | down-regulate expression | reduce cell growth | cell growth / proliferation (in words) (HMC-1.2 cells [3]; HMC-1.2, pharmacologically relevant concentrations): counteract cell growth
4 | > 10000 nM | 30 to 80 nM | Cc1cn(-c2cc(NC(=O)c3ccc(C)c(Nc4nccc(-c5cccnc5)n4)c3)cc(C(F)(F)F)c2)cn1 [nilotinib, 4-methyl-3-[[4-(3-pyridinyl)-2-pyrimidinyl]amino]-N-[5-(4-methyl-1H-imidazol-1-yl)-3-(trifluoromethyl)phenyl]benzamide] | induce apoptosis | no significant effects | down-regulate expression | reduce cell growth | IC50 (HMC-1.2 cells [3]; 24 hours of incubation with drugs): 1000 to 3000 nM; IC50 (HMC-1.1 cells [4]; 24 hours of incubation with drugs or transfection with ASO): 3 to 10 nM; drug interaction with mcl-1 ASO (synergism, combination index less than 1) (HMC-1.1 cells [7]): only synergistic in HMC-1.1 cells
5 | – | – | mcl-1 siRNA: double-stranded mcl-1 siRNA (AAGAAACGCGGUAAUCGGACU, SEQ ID NO:8, and AGUCCGAUUACCGCGUUUCUU, SEQ ID NO:9) (chain 1 AAGAAACGCGGUAAUCGGACU; chain 2 AGUCCGAUUACCGCGUUUCUU; listed as RNA, chemistry not given here; listed as Homo sapiens) | – | – | – | – | apoptotic cells (HMC-1.2 cells [1]; HMC-1.2, siRNA 200 nM, 12 hours): increase in apoptotic cells; apoptotic cells (HMC-1.1 cells [2]; HMC-1.1, siRNA 200 nM, 12 hours): increase in apoptotic cells; expression of the Mcl-1 protein (Mcl-1 protein [5]; HMC-1.2, siRNA 200 nM): downregulate expression; expression of the Mcl-1 protein (Mcl-1 protein [6]; HMC-1.1, siRNA 200 nM): downregulate expression
